According to the OligoGym collection:
“And” between values parts separate entries of the source, which are not always exact repeats. Equal values may be shown once. After the bases stand the sugars from the 5' end (letter, count) and the backbone: PS all phosphorothioate, else s phosphorothioate and o phosphodiester by linkage. Methylation of C is not given here. e = 2'-O-(2-methoxyethyl) (MOE); k = constrained ethyl (cEt); d = 2'-deoxy (DNA)

target: IRF4; conditions: ASO, MM.1R, 0.0625 µM

| Sequence | target mRNA inhibition |
| --- | --- |
| TCATTTACTGTTACCG (sugars k3 d10 k3, PS) | 6% |

same assay, conditions: ASO, MM.1R, 0.074 µM

| Sequence | target mRNA inhibition |
| --- | --- |
| GTTGTAAATGAGTCGG (sugars kkdddddddddkdkdk, PS) | 34% |

same assay, conditions: ASO, MM.1R, 0.222 µM

| Sequence | target mRNA inhibition |
| --- | --- |
| GTTGTAAATGAGTCGG (sugars kkdddddddddkdkdk, PS) | 45% |

same assay, conditions: ASO, MM.1R, 0.25 µM

| Sequence | target mRNA inhibition |
| --- | --- |
| TCATTTACTGTTACCG (sugars k3 d10 k3, PS) | 18% |

same assay, conditions: ASO, MM.1R, 0.666 µM

| Sequence | target mRNA inhibition |
| --- | --- |
| GTTGTAAATGAGTCGG (sugars kkdddddddddkdkdk, PS) | 64% |

same assay, conditions: ASO, MM.1R, 1 µM

| Sequence | target mRNA inhibition |
| --- | --- |
| CAATCTTAACCTGGAG (sugars k3 d10 k3, PS) | 40% |
| GAAGCATTTTATCATC (sugars kkkdddddddddkeke, PS) | 8% |
| AATGGCAGCACCGTGT (sugars k3 d10 k3, PS) | 0% |
| TTCATGTAAAGTCTGC (sugars k2 d9 e3 k2, PS) | 27% and 35% |
| TGCTATTAAACTGATT (sugars k3 d10 k3, PS) | -3% |
| TCTGGCTAGCAGAGGT (sugars k3 d10 k3, PS) | 26% |
| AGGCACATCAATGTTT (sugars kkddddddddddkeke, PS) | 16% and 14% |
| GACTGACAGCCGAAGC (sugars k3 d10 k3, PS) | 27% |
| CCACATGTCCCGTGGG (sugars k3 d10 k3, PS) | -28% |
| AGTGACTTGCATCCAT (sugars kddddddddddkekek, PS) | 2% |
| ATCCACTGGCACCAAG (sugars k3 d10 k3, PS) | 5% |
| GACACTTTTAGAGAGG (sugars kkdddddddddekeke, PS) | 22% |
| GACGAACGCGCAAAAC (sugars k3 d10 k3, PS) | 15% |
| GGGTGGTAGAATGTGA (sugars k3 d10 k3, PS) | 33% |
| CTGAAACGGTCAGCAG (sugars k3 d10 k3, PS) | 3% |
| GTTGTAAATGAGTCGG (sugars kkdddddddddkdkdk, PS) | 58% |
| CATTCGAGGTGATTCT (sugars k3 d10 k3, PS) | 11% |
| GCTCCCGACACGCGCC (sugars k3 d10 k3, PS) | 3% and 19% |

| Sequence | target mRNA inhibition |
| --- | --- |
| TCAGGGAATCCCTTAT (sugars k3 d10 k3, PS) | 4% |
| TTCATGTAAAGTCTGC (sugars kdddddddddkekeke, PS) | 9% and 3% |
| GCCCGCAAAAGAAACG (sugars k3 d10 k3, PS) | 2% |
| TAGTAAGTTCTAGTCG (sugars k3 d10 k3, PS) | -13% |
| GGCCTTAATGGTGATT (sugars k3 d10 k3, PS) | -16% |
| GTTGGCTGGTCTTTGT (sugars kkddddddddddkeke, PS) | 25% |
| CCGGAGGAAGTCCCCT (sugars k3 d10 k3, PS) | 0% |
| TTTCAGGAGCTAGTTT (sugars k3 d10 k3, PS) | 8% |
| CGTAACAACGACACAC (sugars k3 d10 k3, PS) | -35% |
| GACATAAAGGACCCCG (sugars k3 d10 k3, PS) | 8% |
| ATTCTTGAATAGAGGA (sugars k3 d10 k3, PS) | 16% |
| CTGCCAAGTTGAAGAC (sugars k3 d10 k3, PS) | 33% |
| ACCGATGCTTCAAGAC (sugars k3 d10 k3, PS) | 31% and 56% |
| TCATTTACTGTTACCG (sugars k3 d10 k3, PS) | 56% and 40% |
| TCTATAGTGTTCCAGG (sugars kkkddddddddkekek, PS) | 13% |
| GAATGGCGCATAGGTC (sugars k3 d10 k3, PS) | 26% |
| AGCAAGAGCTTACTGT (sugars k3 d10 k3, PS) | -6% |

same assay, conditions: ASO, MM.1R, 2 µM

| Sequence | target mRNA inhibition |
| --- | --- |
| GTTGTAAATGAGTCGG (sugars kkdddddddddkdkdk, PS) | 85% |

same assay, conditions: ASO, MM.1R, 4 µM

| Sequence | target mRNA inhibition |
| --- | --- |
| TCATTTACTGTTACCG (sugars k3 d10 k3, PS) | 82% |

same assay, conditions: ASO, SK-MEL-28, 0.185 µM

| Sequence | target mRNA inhibition |
| --- | --- |
| GTTGTCTGGCTAGCAG (sugars k4 d8 k4, PS) | 6% and 4% |

same assay, conditions: ASO, SK-MEL-28, 4 µM

| Sequence | target mRNA inhibition |
| --- | --- |
| GAAGAATTTTAGCATC (sugars k3 d10 k3, PS) | 56% |
| CTATTAAACAGCACTC (sugars k3 d10 k3, PS) | 18% |
| ACGCTTGCAGCTCTGA (sugars k3 d10 k3, PS) | 48% |
| GATATAAATAGCTGTT (sugars k3 d10 k3, PS) | 37% |
| CTCCTTTTTTGGCTCC (sugars k4 d8 k4, PS) | 7% |
| CGGAGCTTCCCGTTGC (sugars k3 d10 k3, PS) | 35% |
| CATCCAAGAGTAGCGC (sugars k3 d10 k3, PS) | 73% and 63% |
| GCTACGCAATCTTCTG (sugars k3 d10 k3, PS) | 58% |
| AGTCAGACAGTGCGCC (sugars k3 d10 k3, PS) | 10% |
| TCAACAGCAGGTTTTG (sugars k3 d10 k3, PS) | 41% |
| TTTTTCCATATGACCC (sugars k3 d10 k3, PS) | 75% |
| GTTGTCTGGCTAGCAG (sugars k4 d8 k4, PS) | 52% |
| CTAAAGAATGAGGGTC (sugars k3 d10 k3, PS) | 62% |
| GAGGACCTCGCCTGCG (sugars k3 d10 k3, PS) | -2% |
| GTCCTGCTTGCCCGCG (sugars k4 d8 k4, PS) | 14% |
| TGAGATAGGAAGCACT (sugars k3 d10 k3, PS) | 38% |
| CTTCACTCAGCAAGTG (sugars k3 d10 k3, PS) | 43% |
| AGACGAAAACAGCCGC (sugars k3 d10 k3, PS) | 25% |
| AGCCGCCACATCAGCA (sugars k3 d10 k3, PS) | 21% |
| GATGGAACAGTAACTT (sugars k3 d10 k3, PS) | 51% |
| GAACAGATAGTTAAGT (sugars k3 d10 k3, PS) | 17% |

| Sequence | target mRNA inhibition |
| --- | --- |
| CAGGTAAGGGCCCCGT (sugars k3 d10 k3, PS) | 70% |
| TTTTAAGGCCCTGTCA (sugars k3 d10 k3, PS) | 18% |
| ACGCGCGGAGGACCTC (sugars k3 d10 k3, PS) | 13% |
| ATAGGAAGTTTACTAA (sugars k3 d10 k3, PS) | 13% |
| TCAACCTGGAAGGATG (sugars k3 d10 k3, PS) | 30% |
| TTGCTTTGCAGAGCAA (sugars k3 d10 k3, PS) | 28% |
| CCCGAGGCCGGAGACC (sugars k3 d10 k3, PS) | 6% |
| TCGCAGGCAGTTGTGC (sugars k3 d10 k3, PS) | -20% |
| TACTGCTTGAGGTTTT (sugars k3 d10 k3, PS) | 50% |
| CTAGATTCTCCCTGCA (sugars k3 d10 k3, PS) | 34% |
| ACAAGCATAAAAGGTT (sugars k4 d8 k4, PS) | 40% |
| GTAGTATGAGAAACGG (sugars k3 d10 k3, PS) | 83% and 80% |
| CAAACACTAATACCTA (sugars k3 d10 k3, PS) | 31% |
| CCGAACTCTCCGCCTC (sugars k3 d10 k3, PS) | 36% |
| ATGCAAGCCCGTTAAT (sugars k3 d10 k3, PS) | 4% |
| CAGTCAAAGATTCATT (sugars k3 d10 k3, PS) | 40% |
| AGTAGCTGGGCCCTCG (sugars k3 d10 k3, PS) | 62% |
| CCTGAGACAAGTGCTA (sugars k3 d10 k3, PS) | 43% |
| CCGTGAAACAGCAGTT (sugars k3 d10 k3, PS) | 56% |
| CATCACTGCAGTTCAC (sugars k3 d10 k3, PS) | 47% |
| TGCCAGTGGTGGCCGC (sugars k3 d10 k3, PS) | 30% |

same assay, conditions: ASO, SK-MEL-28, 5 µM

| Sequence | target mRNA inhibition |
| --- | --- |
| GTTGTCTGGCTAGCAG (sugars k4 d8 k4, PS) | 42% and 44% and 53% |

same assay, conditions: ASO, SK-MEL-28, 15 µM

| Sequence | target mRNA inhibition |
| --- | --- |
| GTTGTCTGGCTAGCAG (sugars k4 d8 k4, PS) | 62% and 65% and 83% |
